Reference: the NIST ThermoML archive (doi:10.1016/j.jct.2015.11.023)
± gives the expanded uncertainty stated by the source.

Experiments:
[1] = refractive index (Na D-line) (dimensionless); wn = mass fraction of the nth substance listed; conditions: 100 kPa, Liquid, Standard Abbe refractometry
[2] = wn = mass fraction of the nth substance listed; conditions: for surface tension liquid-gas: Maximal bubble pressure; for mass density: 100 kPa, Liquid, Vibrating tube method

CCCC[n+]1ccccc1.N#C[N-]C#N [1-butylpyridinium dicyanamide] + O
Conditions | mass density [kg/m3] | refractive index | surface tension liquid-gas [mN/m]
[1], 303.15 K, w2 = 0.00176 | – | 1.5323 ± 0.003 | –
[1], 303.15 K, w2 = 0.00319 | – | 1.5321 ± 0.003 | –
[1], 303.15 K, w2 = 0.00477 | – | 1.5319 ± 0.003 | –
[1], 303.15 K, w2 = 0.00627 | – | 1.5317 ± 0.003 | –
[1], 303.15 K, w2 = 0.0078 | – | 1.5315 ± 0.003 | –
[1], 308.15 K, w2 = 0.00176 | – | 1.5306 ± 0.003 | –
[1], 308.15 K, w2 = 0.00319 | – | 1.5303 ± 0.003 | –
[1], 308.15 K, w2 = 0.00477 | – | 1.5301 ± 0.003 | –
[1], 308.15 K, w2 = 0.00627 | – | 1.5298 ± 0.003 | –
[1], 308.15 K, w2 = 0.0078 | – | 1.5296 ± 0.003 | –
[1], 313.15 K, w2 = 0.00176 | – | 1.5283 ± 0.003 | –
[1], 313.15 K, w2 = 0.00319 | – | 1.5281 ± 0.003 | –
[1], 313.15 K, w2 = 0.00477 | – | 1.5279 ± 0.003 | –
[1], 313.15 K, w2 = 0.00627 | – | 1.5277 ± 0.003 | –
[1], 313.15 K, w2 = 0.0078 | – | 1.5275 ± 0.003 | –
[1], 318.15 K, w2 = 0.00176 | – | 1.5267 ± 0.003 | –
[1], 318.15 K, w2 = 0.00319 | – | 1.5265 ± 0.003 | –
[1], 318.15 K, w2 = 0.00477 | – | 1.5262 ± 0.003 | –
[1], 318.15 K, w2 = 0.00627 | – | 1.526 ± 0.003 | –
[1], 318.15 K, w2 = 0.0078 | – | 1.5258 ± 0.003 | –
[1], 323.15 K, w2 = 0.00176 | – | 1.525 ± 0.003 | –
[1], 323.15 K, w2 = 0.00319 | – | 1.5248 ± 0.003 | –
[1], 323.15 K, w2 = 0.00477 | – | 1.5245 ± 0.003 | –
[1], 323.15 K, w2 = 0.00627 | – | 1.5243 ± 0.003 | –
[1], 323.15 K, w2 = 0.0078 | – | 1.5241 ± 0.003 | –
[1], 328.15 K, w2 = 0.00176 | – | 1.5234 ± 0.003 | –
[1], 328.15 K, w2 = 0.00319 | – | 1.5232 ± 0.003 | –
[1], 328.15 K, w2 = 0.00477 | – | 1.523 ± 0.003 | –
[1], 328.15 K, w2 = 0.00627 | – | 1.5227 ± 0.003 | –
[1], 328.15 K, w2 = 0.0078 | – | 1.5225 ± 0.003 | –
[1], 333.15 K, w2 = 0.00176 | – | 1.5214 ± 0.003 | –
[1], 333.15 K, w2 = 0.00319 | – | 1.5212 ± 0.003 | –
[1], 333.15 K, w2 = 0.00477 | – | 1.5209 ± 0.003 | –
[1], 333.15 K, w2 = 0.00627 | – | 1.5207 ± 0.003 | –
[1], 333.15 K, w2 = 0.0078 | – | 1.5204 ± 0.003 | –
[1], 338.15 K, w2 = 0.00176 | – | 1.5199 ± 0.003 | –
[1], 338.15 K, w2 = 0.00319 | – | 1.5197 ± 0.003 | –
[1], 338.15 K, w2 = 0.00477 | – | 1.5194 ± 0.003 | –
[1], 338.15 K, w2 = 0.00627 | – | 1.5192 ± 0.003 | –
[1], 338.15 K, w2 = 0.0078 | – | 1.5189 ± 0.003 | –
[2], 303.15 K, w2 = 0.00123 | 1065.65 ± 2 | – | –
[2], 303.15 K, w2 = 0.00176 | – | – | 55.8 ± 0.5
[2], 303.15 K, w2 = 0.00269 | 1065.52 ± 2 | – | –
[2], 303.15 K, w2 = 0.0033 | – | – | 56.2 ± 0.5
[2], 303.15 K, w2 = 0.00417 | 1065.37 ± 2 | – | –
[2], 303.15 K, w2 = 0.00478 | – | – | 56.5 ± 0.5
[2], 303.15 K, w2 = 0.00567 | 1065.24 ± 2 | – | –
[2], 303.15 K, w2 = 0.00628 | – | – | 56.8 ± 0.5
[2], 303.15 K, w2 = 0.00714 | 1065.12 ± 2 | – | –
[2], 303.15 K, w2 = 0.0078 | – | – | 57.1 ± 0.5
[2], 308.15 K, w2 = 0.00123 | 1062.58 ± 2 | – | –
[2], 308.15 K, w2 = 0.00176 | – | – | 55.5 ± 0.5
[2], 308.15 K, w2 = 0.00269 | 1062.45 ± 2 | – | –
[2], 308.15 K, w2 = 0.0033 | – | – | 55.9 ± 0.5
[2], 308.15 K, w2 = 0.00417 | 1062.32 ± 2 | – | –
[2], 308.15 K, w2 = 0.00478 | – | – | 56.2 ± 0.5
[2], 308.15 K, w2 = 0.00567 | 1062.16 ± 2 | – | –
[2], 308.15 K, w2 = 0.00628 | – | – | 56.5 ± 0.5
[2], 308.15 K, w2 = 0.00714 | 1062.04 ± 2 | – | –
[2], 308.15 K, w2 = 0.0078 | – | – | 56.8 ± 0.5
[2], 313.15 K, w2 = 0.00123 | 1059.54 ± 2 | – | –
[2], 313.15 K, w2 = 0.00176 | – | – | 55.2 ± 0.5
[2], 313.15 K, w2 = 0.00269 | 1059.41 ± 2 | – | –
[2], 313.15 K, w2 = 0.0033 | – | – | 55.6 ± 0.5
[2], 313.15 K, w2 = 0.00417 | 1059.23 ± 2 | – | –
[2], 313.15 K, w2 = 0.00478 | – | – | 55.9 ± 0.5
[2], 313.15 K, w2 = 0.00567 | 1059.11 ± 2 | – | –
[2], 313.15 K, w2 = 0.00628 | – | – | 56.2 ± 0.5
[2], 313.15 K, w2 = 0.00714 | 1058.97 ± 2 | – | –
[2], 313.15 K, w2 = 0.0078 | – | – | 56.5 ± 0.5
[2], 318.15 K, w2 = 0.00123 | 1056.51 ± 2 | – | –
[2], 318.15 K, w2 = 0.00176 | – | – | 54.9 ± 0.5
[2], 318.15 K, w2 = 0.00269 | 1056.38 ± 2 | – | –
[2], 318.15 K, w2 = 0.0033 | – | – | 55.2 ± 0.5
[2], 318.15 K, w2 = 0.00417 | 1056.24 ± 2 | – | –
[2], 318.15 K, w2 = 0.00478 | – | – | 55.5 ± 0.5
[2], 318.15 K, w2 = 0.00567 | 1056.07 ± 2 | – | –
[2], 318.15 K, w2 = 0.00628 | – | – | 55.8 ± 0.5
[2], 318.15 K, w2 = 0.00714 | 1055.94 ± 2 | – | –
[2], 318.15 K, w2 = 0.0078 | – | – | 56.2 ± 0.5
[2], 323.15 K, w2 = 0.00123 | 1053.5 ± 2 | – | –
[2], 323.15 K, w2 = 0.00176 | – | – | 54.6 ± 0.5
[2], 323.15 K, w2 = 0.00269 | 1053.36 ± 2 | – | –
[2], 323.15 K, w2 = 0.0033 | – | – | 54.9 ± 0.5
[2], 323.15 K, w2 = 0.00417 | 1053.23 ± 2 | – | –
[2], 323.15 K, w2 = 0.00478 | – | – | 55.2 ± 0.5
[2], 323.15 K, w2 = 0.00567 | 1053.04 ± 2 | – | –
[2], 323.15 K, w2 = 0.00628 | – | – | 55.5 ± 0.5
[2], 323.15 K, w2 = 0.00714 | 1052.91 ± 2 | – | –
[2], 323.15 K, w2 = 0.0078 | – | – | 55.8 ± 0.5
[2], 328.15 K, w2 = 0.00123 | 1050.5 ± 2 | – | –
[2], 328.15 K, w2 = 0.00176 | – | – | 54.3 ± 0.5
[2], 328.15 K, w2 = 0.00269 | 1050.36 ± 2 | – | –
[2], 328.15 K, w2 = 0.0033 | – | – | 54.6 ± 0.5
[2], 328.15 K, w2 = 0.00417 | 1050.22 ± 2 | – | –
[2], 328.15 K, w2 = 0.00478 | – | – | 54.9 ± 0.5
[2], 328.15 K, w2 = 0.00567 | 1050.05 ± 2 | – | –
[2], 328.15 K, w2 = 0.00628 | – | – | 55.2 ± 0.5
[2], 328.15 K, w2 = 0.00714 | 1049.92 ± 2 | – | –
[2], 328.15 K, w2 = 0.0078 | – | – | 55.5 ± 0.5
[2], 333.15 K, w2 = 0.00123 | 1047.53 ± 2 | – | –
[2], 333.15 K, w2 = 0.00176 | – | – | 54 ± 0.5
[2], 333.15 K, w2 = 0.00269 | 1047.4 ± 2 | – | –
[2], 333.15 K, w2 = 0.0033 | – | – | 54.3 ± 0.5
[2], 333.15 K, w2 = 0.00417 | 1047.21 ± 2 | – | –
[2], 333.15 K, w2 = 0.00478 | – | – | 54.6 ± 0.5
[2], 333.15 K, w2 = 0.00567 | 1047.07 ± 2 | – | –
[2], 333.15 K, w2 = 0.00628 | – | – | 54.9 ± 0.5
[2], 333.15 K, w2 = 0.00714 | 1046.94 ± 2 | – | –
[2], 333.15 K, w2 = 0.0078 | – | – | 55.2 ± 0.5
[2], 338.15 K, w2 = 0.00123 | 1044.55 ± 2 | – | –
[2], 338.15 K, w2 = 0.00176 | – | – | 53.7 ± 0.5
[2], 338.15 K, w2 = 0.00269 | 1044.42 ± 2 | – | –
[2], 338.15 K, w2 = 0.0033 | – | – | 54 ± 0.5
[2], 338.15 K, w2 = 0.00417 | 1044.27 ± 2 | – | –
[2], 338.15 K, w2 = 0.00478 | – | – | 54.3 ± 0.5
[2], 338.15 K, w2 = 0.00567 | 1044.09 ± 2 | – | –
[2], 338.15 K, w2 = 0.00628 | – | – | 54.5 ± 0.5
[2], 338.15 K, w2 = 0.00714 | 1043.94 ± 2 | – | –
[2], 338.15 K, w2 = 0.0078 | – | – | 54.8 ± 0.5
